Measurements taken from patent US20230143751A1, “Aromatic Compound And Use Thereof In Preparing Antineoplastic Drugs” (Shanghai Zheye Biotechnology Co. Ltd., priority 2020, published 2023).
Read-outs that look alike come from different tables or passages of the source.

How the values were obtained:
Format in all cases: cell-based
NCI-H358 cells = assay: Cell proliferation activity of NCI-H358 by CellTiter-Glo reagent; conditions: for IC50: read-out: IC50 value of cell proliferation inhibitory activity of NCI-H358
Description: NCI-H358 cells in exponential growth phase were digested with trypsin-EDTA, plated in a 96-well plate with 2000-3000 cells per well, and incubated overnight at 37° C. with 5% CO2. […] After the incubation, CellTiter-Glo test reagent with an equal volume was added into each well and the obtained 96-well plate was incubated after shaking. The chemiluminescence values were determined by microplate reader, and the IC50 values of the test compounds inhibiting the proliferation of NCI-H358 cells were fitted and calculated by GraphPad Prism software.
The test method of inhibitory activity was the same as that in Test 3 in “Biological Tests” part.

MIA PaCa-2 cells = assay: Cell proliferation activity of MIA PaCa-2 by CellTiter-Glo reagent; conditions: 72 h, CellTiter-Glo; for IC50: Homo sapiens, MIA PaCa-2, read-out: IC50 value of cell proliferation inhibitory activity of the compound on MIA PaCa-2
Description: MIA PaCa-2 cells in exponential growth phase were digested with trypsin-EDTA, plated in a 96-well plate with 2000-3000 cells per well, and incubated overnight at 37° C. with 5% CO2. Mother solutions were prepared from the test compounds by using DMSO, subjected to gradient elution with DMEM growth medium, and then added into the 96-well plate and incubated in an incubator for 72 h at 37° C. with 5% CO2. After the incubation, CellTiter-Glo test reagent with an equal volume was added into each well and the obtained 96-well plate was incubated after shaking. The chemiluminescence values were determined by microplate reader, and the IC50 values of the test compounds inhibiting the proliferation of MIA PaCa-2 cells were fitted and calculated by GraphPad Prism software.
The test method of inhibitory activity was the same as that in Test 2 in “Biological Tests” part.

NCI-H358 = assay: Cell proliferation inhibitory activity on NCI-H358, 3D model test (agarose colony formation); conditions: for anti-cell proliferation activity against KRAS G12C mutant type cells NCI-H358 (in words): 3D model test; for IC50: Homo sapiens, NCI-H358, 3D agarose colony formation, NBT staining
Description: 100 μl of agarose gel with a high concentration was spread in a 96-well plate as the bottom agarose gel layer. Agarose with a low concentration and growth medium containing cells were mixed and then spread on the bottom agar layer, cooled and solidified, then incubated overnight at 37° C. Mother solutions were prepared from the test compounds by using DMSO, and then subjected to gradient elution with RPMI 1640 growth medium. The solutions of test compounds with different concentrations after gradient elution were added to the 96-well plate comprising an upper layer of agar gel-cells. Solvent control well was set up and the plate was incubated in a CO2 incubator. The drug-containing medium was changed during the incubation period and the cell growth situation was observed. After the incubation, the cells were stained with NBT and the number of cell colony formation was counted, and the IC50 values of the compounds inhibiting cell proliferation were derived.

[1] = Homo sapiens, NCI-H358, 72 h, 72 h, CellTiter-Glo, test 3
[2] = Homo sapiens, NCI-H358, test 4, method of test 3

[2H]C([2H])=Cc1ccccc1-c1nc2c(cc1Cl)c(N1[C@@H](C)CN(C(=O)C=C)C[C@@H]1C)nc(=O)n2-c1c(CC)ccnc1C(C)C [Compound 2-3] was tested, and the “anti-cell proliferation activity against KRAS G12C mutant type cells NCI-H358 (in words)” value (NCI-H358 cells; 72 h, CellTiter-Glo) was “significant anti-cell proliferation activity”.
For [2H]/C=C(\[2H])C(=O)N1CCN(c2nc(=O)n(-c3c(CC)ccnc3C(C)C)c3nc(-c4c(F)cccc4C=C)c(Cl)cc23)[C@@H](C)C1 [Compound 2-8], the “anti-cell proliferation activity against KRAS G12C mutant type cells NCI-H358 (in words)” value (NCI-H358 cells; 72 h, CellTiter-Glo) was “significant anti-cell proliferation activity” and the IC50 (NCI-H358 cells; [1]) was < 0.05 µM.
With C=CC(=[18O])N1CCN(c2nc(=O)n(-c3c(C)ccnc3C(C)C)c3nc(-c4ccccc4C=C)c(Cl)cc23)[C@@H](C)C1 [Compound 3-1MIS] the “anti-cell proliferation activity against KRAS G12C mutant type cells NCI-H358 (in words)” value (NCI-H358 cells; 72 h, CellTiter-Glo) was “significant anti-cell proliferation activity” and the IC50 (NCI-H358 cells; [2]) was < 0.05 µM.
With C=CC(=O)N1CCN(c2nc(=O)n(-c3c(C)ccnc3C(C)C)c3nc(-c4ccccc4C=C)c(F)cc23)[C@@H](C)C1 [Compound 3-1] the “anti-cell proliferation activity against KRAS G12C mutant type cells MIA PaCa-2 (in words)” value (MIA PaCa-2 cells) was “significant anti-cell proliferation activity”, the IC50 (MIA PaCa-2 cells) was < 0.05 µM and the “anti-cell proliferation activity against KRAS G12C mutant type cells NCI-H358 (in words)” value (NCI-H358) was “significant anti-cell proliferation activity”. The IC50 (NCI-H358) was < 0.05 µM.
C=CC(=[18O])N1C[C@H](C)N(c2nc(=O)n(-c3c(C)ccnc3C(C)C)c3nc(-c4ccccc4C=C)c(Cl)cc23)[C@@H](C)C1 [Compound 3-3MIS] was tested, and the “anti-cell proliferation activity against KRAS G12C mutant type cells NCI-H358 (in words)” value (NCI-H358 cells; 72 h, CellTiter-Glo) was “significant anti-cell proliferation activity” and the IC50 (NCI-H358 cells; [2]) was < 0.05 µM.
In the case of C=CC(=O)N1CCN(c2nc(=O)n(-c3c(CC)ccnc3C(C)C)c3nc(-c4ccccc4C=C)c(Cl)cc23)[C@@H](C)C1 [Compound 3-4MIS], the IC50 (NCI-H358 cells; 72 h, CellTiter-Glo, test 3) is reported as < 0.05 µM.
C=CC(=[18O])N1CCN(c2nc(=O)n(-c3c(CC)ccnc3C(C)C)c3nc(-c4ccccc4C=C)c(Cl)cc23)[C@@H](C)C1 [Compound 3-4MIS] was tested, and the “anti-cell proliferation activity against KRAS G12C mutant type cells NCI-H358 (in words)” value (NCI-H358 cells; 72 h, CellTiter-Glo) was “significant anti-cell proliferation activity” and the IC50 (NCI-H358 cells; [2]) was < 0.05 µM.
In the case of C=CC(=[18O])N1CCN(c2nc(=O)n(-c3c(C)ccnc3C(C)C)c3nc(-c4c(F)cccc4C=C)c(Cl)cc23)[C@@H](C)C1 [Compound 3-5MIS], the “anti-cell proliferation activity against KRAS G12C mutant type cells NCI-H358 (in words)” value (NCI-H358 cells; 72 h, CellTiter-Glo) is reported as “significant anti-cell proliferation activity” and the IC50 (NCI-H358 cells; [2]) is reported as < 0.05 µM.
In the case of C=CC(=O)N1CCN(c2nc(=O)n(-c3c(C)ccnc3C(C)C)c3nc(-c4c(F)cccc4C=C)c(F)cc23)[C@@H](C)C1 [Compound 3-5], the “anti-cell proliferation activity against KRAS G12C mutant type cells MIA PaCa-2 (in words)” value (MIA PaCa-2 cells) is reported as “significant anti-cell proliferation activity”, the IC50 (MIA PaCa-2 cells) is reported as < 0.05 µM and the “anti-cell proliferation activity against KRAS G12C mutant type cells NCI-H358 (in words)” value (NCI-H358) is reported as “significant anti-cell proliferation activity”. For the same molecule, the IC50 (NCI-H358) was < 0.05 µM.
For C=CC(=[18O])N1C[C@H](C)N(c2nc(=O)n(-c3c(C)ccnc3C(C)C)c3nc(-c4c(F)cccc4C=C)c(Cl)cc23)[C@@H](C)C1 [Compound 3-7MIS], the “anti-cell proliferation activity against KRAS G12C mutant type cells NCI-H358 (in words)” value (NCI-H358 cells; 72 h, CellTiter-Glo) was “significant anti-cell proliferation activity” and the IC50 (NCI-H358 cells; [2]) was < 0.05 µM.
With C=CC(=[18O])N1CCN(c2nc(=O)n(-c3c(CC)ccnc3C(C)C)c3nc(-c4c(F)cccc4C=C)c(Cl)cc23)[C@@H](C)C1 [Compound 3-8MIS] the “anti-cell proliferation activity against KRAS G12C mutant type cells NCI-H358 (in words)” value (NCI-H358 cells; 72 h, CellTiter-Glo) was “significant anti-cell proliferation activity” and the IC50 (NCI-H358 cells; [2]) was < 0.05 µM.
In the case of C=CC(=O)N1C[C@H](C)N(c2nc(=O)n(-c3c(C)ccnc3C(C)C)c3nc(-c4c(F)cccc4C=C)c(Cl)cc23)[C@@H](C)C1 [Compound 3-8], the IC50 (MIA PaCa-2 cells) is reported as < 0.05 µM.
In the case of [2H]C([2H])=Cc1cccc(F)c1-c1nc2c(cc1Cl)c(N1CCN(C(=[18O])C=C)C[C@@H]1C)nc(=O)n2-c1c(C)ccnc1C(C)C [Compound 3-9MIS], the “anti-cell proliferation activity against KRAS G12C mutant type cells NCI-H358 (in words)” value (NCI-H358 cells; 72 h, CellTiter-Glo) is reported as “significant anti-cell proliferation activity” and the IC50 (NCI-H358 cells; [2]) is reported as < 0.05 µM.
For [2H]C([2H])=Cc1cccc(F)c1-c1nc2c(cc1Cl)c(N1[C@@H](C)CN(C(=[18O])C=C)C[C@@H]1C)nc(=O)n2-c1c(C)ccnc1C(C)C [Compound 3-11MIS], the “anti-cell proliferation activity against KRAS G12C mutant type cells NCI-H358 (in words)” value (NCI-H358 cells; 72 h, CellTiter-Glo) was “significant anti-cell proliferation activity” and the IC50 (NCI-H358 cells; [2]) was < 0.05 µM.
[2H]C([2H])=Cc1cccc(F)c1-c1nc2c(cc1Cl)c(N1CCN(C(=[18O])C=C)C[C@@H]1C)nc(=O)n2-c1c(CC)ccnc1C(C)C [Compound 3-12MIS] was tested, and the “anti-cell proliferation activity against KRAS G12C mutant type cells NCI-H358 (in words)” value (NCI-H358 cells; 72 h, CellTiter-Glo) was “significant anti-cell proliferation activity” and the IC50 (NCI-H358 cells; [2]) was < 0.05 µM.
With [2H]C([2H])=Cc1ccccc1-c1nc2c(cc1Cl)c(N1CCN(C(=O)C=C)C[C@@H]1C)nc(=O)n2-c1c(C)ccnc1C(C)C [Compound 3-16M] the “anti-cell proliferation activity against KRAS G12C mutant type cells NCI-H358 (in words)” value (NCI-H358 cells; 72 h, CellTiter-Glo) was “significant anti-cell proliferation activity”, the IC50 (NCI-H358 cells; [1]) was < 0.05 µM and the “cell proliferation inhibitory activity on NCI-H358 compared with the corresponding compound with axial chiral S configuration (in words)” value (NCI-H358 cells; NCI-H358) was “significantly better”.
